Test results: patent US20190218613A1, “METHODS OF DETECTING THE FORMATION OF CELLULAR CLUSTERS OF RNA” (The Regents of the University of California, priority 2017, published 2019)
Entries after “also recorded” stand apart in the source; their conditions may differ. Like-named read-outs stand apart in the source and are kept apart here.

What was measured:
47× CAG RNA = assay: In vitro RNA phase separation/gelation assay (fluorescence micrographs, index of dispersion); format: biochemical; details: for 47× CAG RNA clustering in vitro: 100 mM ammonium acetate (NH4OAc); for 47× CAG RNA clustering / gel formation in vitro: doxorubicin added to pre-formed clusters (37° C., 1 hour) or pre-mixed before annealing
Method: For phase separation/gelation assays, RNAs were diluted to concentrations of 0.5 ng/μL to 0.5 μg/μL in 10 mM Tris pH 7.0, 10 mM MgCl2, 25 mM NaCl buffer, unless indicated otherwise. Nuclease-free buffer stocks were purchased from Ambion. RNA was denatured at 95° C. for 3 minutes and cooled down at 1-4° C. per minute to 37° C. final temperature in a thermocycler and imaged immediately. Samples were visualized using a custom spinning disk confocal microscope (Nikon Ti-Eclipse equipped with a Yokogawa CSU-X spinning disk module) using a×100, 1.49 numerical aperture oil immersion objective and an air-cooled EM-CCD (electron multiplying charge-coupled device). The extent of phase separation/gelation was quantified by the index of dispersion (σ^2/μ) of fluorescence intensity per pixel (pixel size 83 nm×83 nm). Briefly, variance in the fluorescence intensity per image was determined, and normalized to the mean fluorescence intensity in the solution phase of the RNA. For dilute solution (<10% of imaging area occupied with clusters), this parameter reports the extent of inhomogeneity in the sample. At least 20 independent imaging areas (about 1,800 μm^2 each) were analyzed for each condition to achieve a representative measure across the sample. Each datum point in the bar graphs represents one imaging area. Data shown are representative of three or more independent replicates, across two or more independent RNA preparations.
For antisense DNA-mediated repression of RNA phase separation, 47×CAG RNA (200 ng/μL or 2.4 μM) was incubated with the ASO at 20 μM final concentration, followed by heat denaturation and annealing as described above. Doxorubicin was purchased from Cell Signaling Technology (catalogue number 5927). For in vitro experiments, doxorubicin was added to pre-formed RNA clusters, and samples were incubated at 37° C. for 1 hour. Alternatively, doxorubicin and RNA were pre-mixed at indicated concentrations before annealing. Similar results were obtained in both cases.

[1] = system: 47× CAG RNA foci in U-2OS cells; assay: RNA FISH with probe against MS2 hairpin loops in U-2OS cells; format: cell-based
Method: For RNA FISH in U-2OS cells, cells expressing the desired RNA (induced for 24 hours) were fixed with 2% paraformaldehyde for 10 minutes at room temperature and permeabilized by overnight incubation in 70% ethanol at 4° C. Alternatively, cells were fixed and permeabilized by incubation for 10 minutes in methanol with 10% (v/v) acetic acid. Similar results were obtained with both fixation protocols. Fixed and permeabilized cells were either used immediately, or stored in the permeabilization medium at −20° C. until needed. RNA was detected using Cy3-labelled DNA oligonucleotides designed against the MS2-hairpin sequence.

nuclear speckles (SC-35) = format: cell-based
Method: ATP depletion was achieved by rinsing cells twice in DMEM without glucose (Gibco), followed by incubation for 10 minutes in the ATP depletion medium (DMEM without glucose with 1% (v/v) dialyzed FBS (Gibco), 10 mM sodium azide and 6 mM 2-deoxy-D-glucose). Doxorubicin (stock, 10 mM in dimethylsulfoxide (DMSO)) was diluted to the desired concentration in cell culture medium and added to cells pre-induced with doxycycline for 24 hours. Cells were incubated with doxorubicin or an equivalent dilution of DMSO only as control, for 2 hours, and imaged as described above. Ammonium acetate (stock, 5 N) was diluted to 200 mM in cell culture medium. This intermediate dilution (2×) was added to cells pre-induced with doxycycline for 24 hours to achieve a final concentration of 100 mM of ammonium acetate. Cells were incubated in this medium for 10 minutes at 37° C. Normal cell culture medium was replaced after treatment, and cells were imaged immediately or 1 hour after medium replacement. For treatment with ASO, cells pre-induced with doxycycline for 48 hours were transfected with 100 nM final concentration of ASO using either Lipofectamine RNAiMAX (Invitrogen) or TranslT-Oligo Transfection Reagent (Mirius Bio) according to the manufacturers' recommended protocols. […] Cells were imaged 12 hours after transfection.
Hybridization and wash buffers were purchased from Biosearch Technologies and used according to the manufacturer's protocol. For immunofluorescence detection of proteins, methanol-fixed cells were stained using antibodies against muscleblind-like-1 (MBNL1, Abcam, ab45899), hnRNP H (Abcam, ab10374), SC-35 (Abcam, ab11826), coilin (ab87913), fibrillarin (Abcam, ab5821), PML (Abcam, ab179466), and a corresponding Alexa Fluor 647-labelled secondary antibody (Invitrogen A-21236 or Invitrogen A-21244). Samples were co-stained with an anti-green fluorescent protein (GFP) booster antibody (GBA488, Bulldog Bio) to visualize RNA foci. After labelling, samples were mounted in Prolong Gold antifade medium (Thermo Scientific) and imaged using confocal microscopy as described above.

[2] = system: 29× GGGGCC RNA foci in U-2OS cells; assay: Live-cell reporter assay of GGGGCC RNA foci in U-2OS cells; format: cell-based
Method: (§1) A monoclonal U-20S cell line stably expressing Tet-On 3G transactivator protein (Clontech) and a tandem-dimeric MS2 hairpin binding protein tagged with enhanced YFP (MS2CP-YFP) was generated via sequential lentiviral infection and selection. This stable cell line was transduced with repeat-containing plasmids under doxycyclinetetracycline-inducible promoter. […] Cell lines were tested for mycoplasma contamination using a standard PCR kit (LookOut Mycoplasma PCR Detection Kit, Sigma) and verified routinely by live-cell DNA staining.
RNA expression was induced by adding 1,000 ng/mL doxycycline for 12-48 hours, or as indicated. Before imaging, the culture medium was replaced with DMEM with 25 mM HEPES pH 7.5 or FluoroBrite DMEM (Invitrogen) with serum and antibiotics as listed above. For long-term imaging (>2 hours), cells were placed in a live-cell imaging chamber supplemented with 5% CO2. Cells were imaged using a spinning disk confocal microscope (Nikon Ti-Eclipse equipped with a Yokogawa CSU-X spinning disk module) using a×100, 1.49 numerical aperture oil immersion objective and an air-cooled EM-CCD. For each experimental condition, at least 30 randomly chosen cells were imaged and analyzed. Each datum point in the bar graphs represents one cell. Data shown are representative of three or more independent replicates. […]
A fluorescence-intensity and size-based threshold was used to identify RNA foci. […] The nuclei were manually segmented, and the mean YFP fluorescence intensity in the nucleus was manually determined. RNA foci were identified using the FIJI 3D Objects Counter plugin, with an intensity threshold as 1.6x the mean fluorescence intensity in the nucleus of the cell, and a size cut-off of more than 50 adjoining pixels (pixel size, 83 nm×83 nm). […] This method was used to determine the number, volume, surface area, and the fluorescence intensity of the foci.

[3] = system: 47× CAG RNA foci in U-2OS cells; assay: Live-cell reporter assay of RNA foci (MS2CP-YFP) in U-2OS cells; format: cell-based
Method: as §1
RNA expression was induced by adding 1,000 ng/mL doxycycline for 12-48 hours, or as indicated. Before imaging, the culture medium was replaced with DMEM with 25 mM HEPES pH 7.5 or FluoroBrite DMEM (Invitrogen) with serum and antibiotics as listed above. For long-term imaging (>2 hours), cells were placed in a live-cell imaging chamber supplemented with 5% CO2. Cells were imaged using a spinning disk confocal microscope (Nikon Ti-Eclipse equipped with a Yokogawa CSU-X spinning disk module) using a×100, 1.49 numerical aperture oil immersion objective and an air-cooled EM-CCD. For each experimental condition, at least 30 randomly chosen cells were imaged and analyzed. Each datum point in the bar graphs represents one cell. Data shown are representative of three or more independent replicates.
ATP depletion was achieved by rinsing cells twice in DMEM without glucose (Gibco), followed by incubation for 10 minutes in the ATP depletion medium (DMEM without glucose with 1% (v/v) dialyzed FBS (Gibco), 10 mM sodium azide and 6 mM 2-deoxy-D-glucose). Doxorubicin (stock, 10 mM in dimethylsulfoxide (DMSO)) was diluted to the desired concentration in cell culture medium and added to cells pre-induced with doxycycline for 24 hours. Cells were incubated with doxorubicin or an equivalent dilution of DMSO only as control, for 2 hours, and imaged as described above. Ammonium acetate (stock, 5 N) was diluted to 200 mM in cell culture medium. This intermediate dilution (2×) was added to cells pre-induced with doxycycline for 24 hours to achieve a final concentration of 100 mM of ammonium acetate. Cells were incubated in this medium for 10 minutes at 37° C. Normal cell culture medium was replaced after treatment, and cells were imaged immediately or 1 hour after medium replacement. For treatment with ASO, cells pre-induced with doxycycline for 48 hours were transfected with 100 nM final concentration of ASO using either Lipofectamine RNAiMAX (Invitrogen) or TranslT-Oligo Transfection Reagent (Mirius Bio) according to the manufacturers' recommended protocols. Similar results were obtained with both transfection reagents. Cells were imaged 12 hours after transfection.
A fluorescence-intensity and size-based threshold was used to identify RNA foci. Briefly, U-2OS cells expressing the RNA of interest together with MS2CP-YFP were imaged using a spinning disk confocal microscope, and 0.3 μm Z-stacks were acquired. […] The nuclei were manually segmented, and the mean YFP fluorescence intensity in the nucleus was manually determined. RNA foci were identified using the FIJI 3D Objects Counter plugin, with an intensity threshold as 1.6x the mean fluorescence intensity in the nucleus of the cell, and a size cut-off of more than 50 adjoining pixels (pixel size, 83 nm×83 nm). […] This method was used to determine the number, volume, surface area, and the fluorescence intensity of the foci.

[4] = 2.5 μM doxorubicin for 2 hours, listed as Doxorubicin

## [Cl-].[Na+] [NaCl]
47× CAG RNA; NaCl
  clustering of 47× CAG RNA in presence of NaCl: inhibited

## CC(=O)O.N [ammonium acetate]
[1]; 100 mM NH4OAc
  47× CAG RNA foci by RNA FISH: disrupted
Nuclear speckles (SC-35)
  nuclear speckles: disrupted
47× CAG RNA
  47× CAG RNA clustering in vitro: not observed
47× CAG RNA; listed as NH4OAc
  47× CAG RNA clustering in vitro: prevents 47× CAG RNA clustering
[2]; NH4OAc, same cell before and 300 s after treatment
  29× GGGGCC RNA foci in cells: disrupted
[2]; NH4OAc, same cell before and 300 s after treatment, listed as NH4OAc
  29× GGGGCC RNA foci in cells: disrupting 29× GGGGCC RNA foci
[3]
  47× CAG RNA foci in cells: disappearance of 47× CAG RNA foci within minutes; also recorded: disrupted

## COc1cccc2c1C(=O)c1c(O)c3c(c(O)c1C2=O)C[C@@](O)(C(=O)CO)C[C@@H]3O[C@H]1C[C@H](N)[C@H](O)[C@H](C)O1 [doxorubicin]
[1]; 2.5 μM doxorubicin
  47× CAG RNA foci by RNA FISH: disrupted
Nuclear speckles (SC-35); 2.5 μM doxorubicin for 2 hours
  nuclear speckles: not disrupted
Nuclear speckles (SC-35); [4]
  nuclear speckles: without disrupting nuclear speckles
47× CAG RNA
  47× CAG RNA clustering / gel formation in vitro: prevents 47× CAG RNA clustering
47× CAG RNA; listed as Doxorubicin
  47× CAG RNA clustering / gel formation in vitro: blocked the formation of CAG RNA gels in vitro; also recorded: disrupted 47× CAG RNA clustering in vitro in a dose-dependent manner
47× CAG RNA; in vitro
  concentration of doxorubicin needed to disrupt RNA clusters in the in vitro experiments: about 1 mM
[2]; doxorubicin
  29× GGGGCC RNA foci in cells: disrupting 29× GGGGCC RNA foci; also recorded: disrupted
[3]; 2.5 μM doxorubicin for 2 hours
  47× CAG RNA foci in cells: specifically abrogated the 47× CAG RNA foci
[3]; [4]
  47× CAG RNA foci in cells: potently dissolved the 47× CAG nuclear foci in cells
[3]; U-2OS cells, 47× CAG
  concentration of doxorubicin required to disrupt RNA foci in cells: 2.5 µM

## CO[C@H]([C@H](O)CC(=O)[C@@H](C)[C@@H](O)CC[C@@H](C)[C@@H]1O[C@]2(CC[C@@H](C)[C@H](CC[C@H](C)C(C)=O)O2)CC[C@@H]1C)[C@H](OC(=O)C[C@@H](O)C1=C(C)C(=O)OC1=O)C(C)C [tautomycin]
Nuclear speckles (SC-35); 2 μM tautomycin for 4 hours
  nuclear speckles: disruption of nuclear speckles; also recorded: disrupted
[3]; 2 μM tautomycin for 4 hours
  47× CAG RNA foci in cells: disrupts the 47× CAG RNA foci; also recorded: disrupted
